The text below walks through data of publication PMC8763920, “Unprotected peptide macrocyclization and stapling via a fluorine-thiol displacement reaction” (Nature Communications, 2022).

A short description of data set [1]: circular dichroism. The conditions noted are these: water; pH ns; 25 °C; 70 uM.
Data set [2] in a line: Circular dichroism, % alpha helicity. It is filed as physicochemical. To be noted: CD, 70 µM peptide, 25 °C, from MRE at 222 nm, three scans averaged; Axin and p53 peptides in water, HIV-targeting peptides in 25% acetonitrile/water. Here is the method:
The final concentration of the peptide samples was 70 µM. Circular dichroism (CD) measurements were performed on a Jasco model J-815 spectropolarimeter with a 1 mm Jasco quartz cell over the wavelength range of 180–250 nm. The scans were carried out at 0.2 nm resolution with 4 s average time at 25 °C. Data from three scans were averaged, base line corrected, and normalized to the mean residue ellipticity (MRE) following the equation: [θ]λ = [θ]obs/(10 × l × C × n). [θ]λ is MRE in deg × cm^2 × dmol^−1; [θ]obs is the measured ellipticity; C is the concentration of peptides in M; l is the optical pathlength in cm; and n is the number of residues in peptides. The % alpha helicity was calculated from the MRE values at 222 nm, using the equation % helicity = ([θ]222−[θ]0)/([θ]max−[θ]0) based on the previously reported method. [θ]222 is the MRE value at 222 nm; [θ]max is the maximum theoretical MRE value for a helix of n residues; and [θ]0 is the MRE value of the peptide in random coil conformation that usually equals to (2220-53T)[86].

Data set [3] has as its system p53 wild-type HCT-116 cells. In kind it is cell-based. To be noted: human.
Data set [4] relates to HeLa cells. Nature of the data set: Cell penetration of STAD peptides, confocal imaging. The conditions noted are these: 5 µM peptide, 2 h, confocal microscopy, 78 normalized as 1, mean ± SEM. It is filed as cell-based. Here is the method: Hoechst 33342 dye and FITC-labelled peptides were excited with 405 and 488 nm lasers (Coherent OBIS), respectively. Images were analysed with NIH ImageJ software. Using the “analyse particles” function, we measured the area and intensity of individual cells (Supplementary Fig. 34a)[87]. […] However, from the distribution of data we found the best fit curve to be lognormal. Outliers were then removed using a Grubbs test (Supplementary Fig. 35b)[88]. We determined the optimal bin size for the histogram using the Freedman–Draconis rule[89]. The mean fluorescence intensity from each treatment group was calculated from n ≥ 100 cells. Error bars represented SE. P values were calculated by two sided Welch’s t test for comparison with internalization of RCM-stapled control peptides.
For FITC-labelled SAHBA analogues, 5 μM of each was incubated with Jurkat cells for 4 h[13]. The rest of the imaging procedures were done the same as mentioned above. Likewise, 5 µM of STAD peptides were incubated with HeLa cells for 2 h[71], followed by similar imaging studies; and 2 µM of p53 peptide analouges were mixed with HCT116 wt cells for 4 h before the imaging analysis of their cellular uptake. Cell samples treated with STAD or p53 series of peptide analogues were also simulatenously stained by propidium iodide (PI) to ensure the cell viability and membrane integrity.

The subject of data set [5] is DLD-1 cells. Nature of the data set: 5-day growth inhibition of DLD-1 cancer cells. To be noted: 5 days, CellTiter Glo, 1000 cells per well, n = 3; read-out: EC50, inhibition of DLD-1 cell growth. In kind it is cell-based. Here is the method:
(§1) For growth inhibition by Axin peptides, DLD-1 cells were cultured and maintained as mentioned before. Right before the assay, cells were resuspended in fresh RPMI media supplemented with 10% FBS, 100 IU/mL penicillin, and 100 µg/mL streptomycin, and plated onto 96-well white flat-bottom plates at 1000 cells per well (90 µL media/well). After overnight incubation, peptide samples were serially diluted as 10× stock in PBS buffer (10% DMSO), and were added to the plated cells at 10 µL stock solution/well in triplicate to make final treatment concentrations of 0, 0.0625, 0.125, 0.25, 0.5, 1, 2, 4, 8, 16 µM. The wells on the edges of plates were filled with PBS buffer to avoid unwanted evaporation of samples. The samples on the plates were incubated at 37 °C, 5% CO2 for 5 days, and the cell viability was evaluated by CellTiter Glo (Promega). The luminescence signals were recorded by the H1 synergy plate reader (Biotek) using the Gen5 software, and were normalized against the control groups (100%) for which cells were only treated with the vehicle (PBS/1% DMSO). Control HEK293 cells were cultured in DMEM media supplemented with 10% FBS, 1% penicillin/streptomycin at 37 °C, 5% CO2, then incubated with peptide samples and measured for viability in the same manner as mentioned above. For Axin peptide analogues’ time-dependent cytotoxicity, peptide analogues were mixed with cells (1000 cells per well) at a final concentration of 0, 5, 10, and 15 µM. The cell viabilities were meaured via CellTiter Glo after incubation of 1 day, 2 days, and 4 days, respectively. […] After 24 h of incubation, the cell viabilities were measured and normalized against the vehicle control groups the same as mentioned above.
On the technique in general: Cellular ATP, detected with luciferase, serves as a proxy for viable cell number.

The subject of data set [6] is HEK293 cells. Nature of the data set: 5-day growth of HEK293 control cells. It is filed as cell-based. The conditions noted are these: 5 days, CellTiter Glo, up to 16 µM. Here is the method: as §1, with “The wells on the edges of plates were filled with PBS buffer to avoid unwanted evaporation of samples.” left out, “above.” for “above. For Axin peptide analogues’ time-dependent cytotoxicity, peptide analogues were mixed with cells (1000 cells per well) at a final concentration of 0, 5, 10, and 15 µM. The cell viabilities were meaured via CellTiter Glo after incubation of 1 day, 2 days, and 4 days, respectively.”

For data set [7], the system named is DLD-1 cells. Nature of the data set: Cell viability assay for imaging studies, Axin analogues. It is filed as cell-based. The conditions noted are these: 10 µM, 12 h incubation, CellTiter-Glo. On the procedure: For Jurkat cells, after imaging studies with SAHBA analogues (5 µM, 4 h of incubation), viabilities were measured by mixing with the CellTiter-Glo reagent and the chemiluminescence signals were recorded and processed the same as metioned above. Similarly, confocal imaging of DLD-1 cells for the penetration pathway studies were followed by viability measurements. Cells treated with vehicle groups were also analysed and counted as the 100% control.

In data set [8] the test system is DLD-1 cells. Nature of the data set: Time-dependent cytotoxicity/growth inhibition of Axin peptide analogues. In kind it is cell-based. The conditions noted are these: 0, 5, 10, 15 µM; after 48 h of incubation; CellTiter Glo. Here is the method: as §1, with “The wells on the edges of plates were filled with PBS buffer to avoid unwanted evaporation of samples.” left out, “above.” for “above. For Axin peptide analogues’ time-dependent cytotoxicity, peptide analogues were mixed with cells (1000 cells per well) at a final concentration of 0, 5, 10, and 15 µM. The cell viabilities were meaured via CellTiter Glo after incubation of 1 day, 2 days, and 4 days, respectively.”

For data set [9], the system named is β-catenin mediated transcription. Put plainly: TOPFlash luciferase reporter assay. In kind it is cell-based. To be noted: DLD-1 cells, 15 μM peptide, 24 h. Here is the method:
For evaluation of Axin peptide analogues, DLD-1 cells were cultured in 96-well flat bottom plates up to 70–80% confluency and were transfected with 200 ng M50 TOPFlash plasmid (a gift from Professor Raymond Habas, Temple Biology) and 50 ng pRL-TK plasmid (Promega). 12 h after transfection, cells were treated with DMSO vehicle or 15 μM of Axin peptide analogues for another 24 h. Luciferase activity was measured using the Dual-Glo luciferase assay kit (Promega) on a Biotek Synergy H1 plate reader using the Gen5 software. Data were processed as firefly: Renilla luciferase ratio for each control or treatment group, and were further normalized against the vehicle control group (100%) as the Relative Activities.
For orientation: Reporter assays use an easily measured gene product as a stand-in for the process of interest.

*1 amine or outer side, *2 acyl side, *3 side chain or, on linkers, in order; H or OH if unused. Where a SMILES comes first, the peptide text is derived from it. Bridges are numbered along the chain shown (N, C = ends). [ ]: non-standard residue; d: D form. The star is where a group is joined. Benzene(1,3-(CH2SCH2CO)2) = O=C(CSCc1cccc(CSCC(=O)[*:2])c1)[*:1]; FITC = O=C1OC2(c3ccc(O)cc3Oc3cc(O)ccc32)c2ccc(NC(=S)*)cc21; Dap = NC[C@H](N)C(=O)O; βAla = NCCC(=O)O

Usually EC50 stands for the concentration giving half of the maximal effect. `CC(=O)N[C@@H](CCC(N)=O)C(=O)N[C@@H](CO)C(=O)N[C@@H](CCC(N)=O)C(=O)N[C@@H](CCC(N)=O)C(=O)N[C@H](C(=O)N[C@@H](Cc1ccccc1)C(=O)N[C@H]1CNC(=O)CSCc2ccc(cc2)CSCC(=O)NC[C@H](C(=O)N[C@@H](CCC(N)=O)C(=O)N[C@@H](CC(N)=O)C(N)=O)NC(=O)[C@H](CC(C)C)NC(=O)[C@H](CC(C)C)NC(=O)[C@H](CCCNC(=N)N)NC(=O)[C@H](Cc2c[nH]c3ccccc23)NC(=O)[C@H](CC(C)C)NC(=O)[C@H](CC(N)=O)NC1=O)[C@@H](C)O` [compound 87]: the helicity in data set [1] was found to be 64%. Besides, the “Helicity (%)” value in data set [2] was 64%. The response in data set [3] was half-maximal at 710 ± 180 nM (EC50).
As for `CC[C@H](C)[C@@H]1NC(=O)[C@@H](NC(=O)[C@H](CC(=O)O)NC(=O)[C@H](C)NC(=O)[C@H](CC(C)C)NC(=O)[C@H](CCC(N)=O)NC(=O)[C@H](CCCCN)NC(=O)[C@H](C)NC(=O)[C@H](Cc2ccc(O)cc2)NC(=O)[C@H](CCCCN)NC(=O)[C@H](CCCCN)NC(=O)CCNC(=S)Nc2ccc3c(c2)C(=O)OC32c3ccc(O)cc3Oc3cc(O)ccc32)CNC(=O)CSCc2cccc(c2)CSCC(=O)NC[C@@H](C(=O)N[C@@H](C)C(=O)N[C@H](C(=O)N[C@@H](CCC(=O)O)C(N)=O)[C@@H](C)O)NC(=O)[C@H](CCCCN)NC(=O)[C@H]([C@@H](C)CC)NC1=O` [compound 75] ({FITC-βAla}-KKYAKQLAD[Dap]IIK[Dap]ATE-NH2; linker 10-14 via Benzene(1,3-(CH2SCH2CO)2)), the “mean intensity versus RCM stapled STAD 78” value in data set [4] was 2.92 ± 0.08 fold.
Regarding `CC(=O)N[C@@H](CCC(N)=O)C(=O)N[C@@H](CO)C(=O)N[C@@H](CCC(N)=O)C(=O)N[C@@H](CCC(N)=O)C(=O)N[C@H](C(=O)N[C@@H](Cc1ccccc1)C(=O)N[C@H]1CNC(=O)CSCc2ccc(cc2)CSCC(=O)NC[C@@H](C(=O)N[C@@H](CCC(N)=O)C(=O)N[C@@H](CC(N)=O)C(N)=O)NC(=O)[C@H](CC(C)C)NC(=O)[C@H](CC(C)C)NC(=O)[C@H](CCCNC(=N)N)NC(=O)[C@H](Cc2c[nH]c3ccccc23)NC(=O)[C@H](CC(C)C)NC(=O)[C@H](CC(N)=O)NC1=O)[C@@H](C)O` [compound 82], in data set [1], the helicity turned out to be 61%. In [3], the EC50 stood at 660 ± 190 nM.
Take `CC[C@H](C)[C@@H]1NC(=O)[C@@H](NC(=O)[C@H](CCC(N)=O)NC(=O)[C@@H]2CCCN2C(=O)[C@H](Cc2c[nH]c3ccccc23)NC(=O)[C@H](CCCNC(=N)N)NC(=O)COCCOCCNC(=S)Nc2ccc3c(c2)C(=O)OC32c3ccc(O)cc3Oc3cc(O)ccc32)CNC(=O)CSCc2cccc(c2)CSCC(=O)NC[C@H](C(=O)N[C@@H](Cc2c[nH]cn2)C(=O)N[C@H](C(=O)N[C@@H](CCCNC(=N)N)C(=O)N[C@@H](CCCNC(=N)N)C(=O)N[C@H](C(=O)N[C@@H](Cc2c[nH]c3ccccc23)C(=O)N[C@@H](CCCNC(=N)N)C(N)=O)C(C)C)C(C)C)NC(=O)[C@H](CC(=O)O)NC(=O)[C@H](CC(C)C)NC1=O` [compound 67]: in [5], the EC50 was determined as 9800 ± 2000 nM. Further, in [6], the “effect on growth of HEK293 control cells” value was “little effects”. Besides, in data set [7], the “effect on viability of DLD-1 cells” value is reported as “did not affect the viability”. For the same compound, the “effects on DLD-1 cells over a time course of 24–96 h” value in [8] is on record as “significant effects”. The “inhibition of β-catenin mediated transcription (TOPFlash)” value in data set [9] is given as “strong inhibition”.
